Where two headings read alike, the source gives them in different places.

Data set [1] concerns the target CYP2E1 (Rattus norvegicus, UniProt P05182). The data set is described as follows: Effect of vehicle on CYP2E1 activity of rat liver S9 (chlorzoxazone 6-hydroxylation). As to conditions: induced rat liver S9; vehicle 7.7% (v/v); chlorzoxazone 10 µM; 30 min.
Data set [2] concerns the target CYP2E1 (Mesocricetus auratus, UniProt P51581). The data set is described as follows: Effect of vehicle on CYP2E1 activity of hamster liver S9 (chlorzoxazone 6-hydroxylation). As to conditions: vehicle 7.7% (v/v), chlorzoxazone 10 µM, 30 min; for effect on conversion of chlorzoxazone to 6-hydroxychlorzoxazone compared with water: induced hamster liver S9; for reduction of 6-hydroxychlorzoxazone formation compared with water: Aroclor-induced hamster liver S9.

Data set [3] concerns S. typhimurium and E. coli tester strains. Nature of the data set: Benchmark dose (BMD) modelling of positive Ames test dose-response data. The class given is cell-based, Salmonella typhimurium and Escherichia coli. As to conditions: BMR 100%; all positive combinations of vehicle, method, strain and S9.
Procedure: Benchmark dose analyses were carried out using the freely available PROAST R-package (version 70.3) (http://www.proast.nl). Ames test dose–response data (with cytotoxic test concentrations removed) were analysed using the exponential model family recommended by EFSA for the assessment of continuous (geno)toxicity dose–response data [37]. Where combined analyses were used, dose–response relationships were analysed using the assay conditions discriminating the subgroups (i.e. sub-study) as a covariate. To prevent overfitting, more complex models with additional parameters were only accepted if the goodness-of-fit exceeded the critical value at P < .05. PROAST outputs designate potency (i.e. the benchmark dose (BMD)) and its two-sided, 90% confidence interval (i.e. the BMDL and BMDU) as the ‘Critical Effect Dose’ (i.e. yielding a CED, CEDL, and CEDU), respectively, for each level of the covariate. Using the combined-covariate BMD approach [38], the model parameters that required estimation for each subgroup and those that could be considered constant across subgroups were established for the combined dataset. In general, the combined analyses presented here assumed that parameters for the maximum response (parameter c), log-steepness (parameter d) were equal for all subgroups, while the background response (parameter a), potency (parameter b), and within-group variation (var) were tested for subgroup dependence [39]. Model fits were used to visually evaluate the validity of the assumption of conserved shape. […]
To further understand the impact of different test parameters on test outcomes, BMD-derived potency/sensitivity rankings [38] were generated from the dose–response relationships for NDMA and NDEA. […] Instead, the purpose is to quantitatively provide a means to compare the potency/sensitivity of different assay conditions, that is, bacterial strain, S9 source, vehicle, and plate/pre-incubation methods, to inform on optimal study designs for robust/sensitive mutagenicity calls. […]
Data set [4] concerns E. coli WP2uvrA (pKM101). To be noted: for increase in mutant frequency at the limit concentration: 5000 µg/plate.
The test system of data set [5] is E. coli WP2uvrA (pKM101). Nature of the data set: Ames test, pre-incubation method, WP2uvrA (pKM101). As to conditions: for increase in mutant frequency compared with vehicle controls: 5000 µg/plate.
A further data set concerns Salmonella typhimurium. To be noted: cited from earlier work.
A further data set relates to S. typhimurium TA98. Nature of the data set: Ames test, pre-incubation method, TA98. As to conditions: vehicle acetonitrile, up to 5000 µg/plate.
A further data set relates to S. typhimurium TA1537. Nature of the data set: Ames test, pre-incubation method, TA1537. As to conditions: S9 hamster, vehicle acetonitrile, up to 5000 µg/plate.
In the next data set the test system is S. typhimurium TA100. Nature of the data set: Ames test, pre-incubation method, TA100.
In a further data set the test system is S. typhimurium TA1535. Nature of the data set: Ames test, pre-incubation method, TA1535. To be noted: hamster liver S9-mix, vehicle water, 5000 µg/plate.
Another data set deals with rat. Also noted: method as in PMID 4230610. As to conditions: historical data; cited from earlier work.
Where [6] appears, read: plate incorporation, rat liver S9-mix, vehicle methanol, E. coli WP2uvrA (pKM101).
[7] abbreviates: plate incorporation, rat liver S9-mix, vehicle water, E. coli WP2uvrA (pKM101).
[8] abbreviates: rat liver S9-mix, vehicle methanol.

Sequence of CYP2E1 (Rattus norvegicus, UniProt P05182) (P05182 whole entry): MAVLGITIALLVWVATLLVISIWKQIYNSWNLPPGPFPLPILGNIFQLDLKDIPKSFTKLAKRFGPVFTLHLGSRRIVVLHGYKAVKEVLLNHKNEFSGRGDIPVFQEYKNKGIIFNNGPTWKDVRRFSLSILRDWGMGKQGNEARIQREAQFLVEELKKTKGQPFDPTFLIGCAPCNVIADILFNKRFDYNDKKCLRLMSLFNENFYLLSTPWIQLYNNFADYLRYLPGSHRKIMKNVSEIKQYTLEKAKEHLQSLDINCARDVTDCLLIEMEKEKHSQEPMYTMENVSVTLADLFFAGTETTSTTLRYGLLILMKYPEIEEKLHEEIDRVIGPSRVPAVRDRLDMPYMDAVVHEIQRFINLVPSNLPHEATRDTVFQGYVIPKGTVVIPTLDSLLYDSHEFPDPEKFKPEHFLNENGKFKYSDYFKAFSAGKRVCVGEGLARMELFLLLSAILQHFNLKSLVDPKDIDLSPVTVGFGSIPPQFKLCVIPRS
Sequence of CYP2E1 (Mesocricetus auratus, UniProt P51581) (P51581 whole entry): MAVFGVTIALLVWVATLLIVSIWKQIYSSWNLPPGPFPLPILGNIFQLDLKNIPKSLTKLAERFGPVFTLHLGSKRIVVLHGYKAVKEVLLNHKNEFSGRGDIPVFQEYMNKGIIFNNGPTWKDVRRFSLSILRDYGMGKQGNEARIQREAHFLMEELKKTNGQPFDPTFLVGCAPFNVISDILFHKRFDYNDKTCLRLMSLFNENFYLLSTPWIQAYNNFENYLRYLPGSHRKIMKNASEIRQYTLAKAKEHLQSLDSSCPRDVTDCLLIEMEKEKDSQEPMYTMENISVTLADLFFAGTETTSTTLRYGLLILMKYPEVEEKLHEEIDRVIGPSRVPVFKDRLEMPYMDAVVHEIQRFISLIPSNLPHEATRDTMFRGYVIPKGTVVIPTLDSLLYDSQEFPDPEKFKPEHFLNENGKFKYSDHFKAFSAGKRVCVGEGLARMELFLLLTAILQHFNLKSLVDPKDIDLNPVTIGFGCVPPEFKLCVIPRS

Consider `CC#N` [acetonitrile], for which the “effect on conversion of chlorzoxazone to 6-hydroxychlorzoxazone compared with water” value (shortened to “effect on conversion … compared with water”) at CYP2E1 [1] and at CYP2E1 [2] was “inhibit” each time.
Take `CC(C)=O` [acetone]: the “effect on conversion … compared with water” value at CYP2E1 [1] is listed as “negligible effect”. Besides, on CYP2E1 [2], the “reduction of 6-hydroxychlorzoxazone formation compared with water” value is given as ~ 75%.
The matching figures for `CO` [Methanol, methanol]: “negligible effect” and ~ 50%.
In the case of `CN(C)N=O` [NDMA, N-Nitrosodimethylamine], the “range in sensitivity/potency (BMD100 confidence intervals) across positive datasets” value in data set [3] is listed as ~ 1000 fold. Moreover, the “concentration giving an increase in revertant colonies compared with vehicle controls” value with E. coli WP2uvrA (pKM101) [4] (setting [6]) is listed as 5000 µg/plate; with E. coli WP2uvrA (pKM101) [4] (setting [7]) it was at least 1500 µg/plate. The “increase in mutant frequency compared with vehicle controls” value stood at 2 fold in the data set on E. coli WP2uvrA (pKM101) [5] (rat liver S9, vehicle methanol) and 2.6 fold in the data set on E. coli WP2uvrA (pKM101) [5] (rat liver S9, vehicle water).
Regarding `CCN(CC)N=O` [NDEA, N-nitrosodiethylamine], in data set [3], the “range in sensitivity/potency (BMD100 confidence intervals) across positive datasets” value is on record as ~ 100 fold. Moreover, the “Ames test strain WP2*” value in the data set with E. coli WP2uvrA (pKM101) [4] was “+”. Further, in the data set on E. coli WP2uvrA (pKM101) [4] (plate incorporation, rat liver S9-mix, all three vehicles water, methanol or DMSO, E. coli WP2uvrA (pKM101)), the “concentration giving concentration-dependent increases in mutant frequency” value was at least 1500 µg/plate. Further, the “mutagenicity in the absence of metabolic activation” value in the data set on Salmonella typhimurium (not tested in the current study) is on record as “non-mutagenic”. For the same molecule, the “Ames test strain TA98” value in the data set with S. typhimurium TA98 (S9 hamster) and with S. typhimurium TA98 (S9 rat) was “Toxic” in each case. Further, the “Ames test strain TA1537” value in the data set on S. typhimurium TA1537 is “Toxic”.
Regarding `C[S+](C)[O-]` [DMSO, dimethylsulfoxide], the “effect on conversion … compared with water” value on CYP2E1 [1] and at CYP2E1 [2] was “inhibit” each time.
As to `CCN(C)N=O` [NMEA, N-nitrosomethylethylamine], the “fold-increase at the limit concentration” value with S. typhimurium TA100 (hamster liver S9-mix, vehicle water, 5000 µg/plate) stood at 32 fold; with S. typhimurium TA1535, 275 fold. The “concentration giving a concentration-related increase in revertant colonies” value in the data set with S. typhimurium TA100 (setting [8]) is at least 1500 µg/plate. In addition, the “range in sensitivity/potency (BMD100 confidence intervals) across positive datasets” value in data set [3] was determined as 1000 fold. In addition, the “concentration giving an increase in revertant colonies compared with vehicle controls” value in the data set on E. coli WP2uvrA (pKM101) [4] (setting [6]) was at least 1500 µg/plate; with E. coli WP2uvrA (pKM101) [4] (setting [7]), at least 2500 µg/plate. Further, the “increase in mutant frequency at the limit concentration” value is given as 4.3 fold in the data set on E. coli WP2uvrA (pKM101) [4] (setting [6]) and 2.7 fold in the data set with E. coli WP2uvrA (pKM101) [4] (setting [7]). In the data set with Salmonella typhimurium (historical data), the “Ames test (legacy result)” value is listed as “negative”. In addition, the “concentration giving a positive response” value with E. coli WP2uvrA (pKM101) [5] (setting [8]) is listed as 5000 µg/plate. Besides, the rodent cancer bioassay result in the data set on rat is on record as “positive”.

These data come from article PMC10928841, “Ames test study designs for nitrosamine mutagenicity testing: qualitative and quantitative analysis of key assay parameters” (Mutagenesis, 2023).
